Assay [1] deals with BRAF mutant human cell line xenograft HT29. The assay can be described thus: BRAF mutant human cell line xenograft HT29 in mice. The format is in vivo. Conditions: clinically relevant doses.
In assay [2] the test system is six BRAFV600E CRC cell lines. The assay can be described thus: growth inhibition (CellTiter-Glo, 7 days) in six BRAF-mutant CRC cell lines. The format is cell-based. The note with it: seven treatment days; dabrafenib 30 nM, Compound A 300 nM, compound B 1.1 μM. The method, then:
Compound A: selective ATP-competitive ERK1 and ERK2 kinase inhibitor. Compound B: selective allosteric inhibitor of SHP2. The compounds were dissolved in 100% DMSO and stored at -20° C. as 10 mM stock solutions.
In this study, we used six BRAF-mutant colorectal cancer cell lines. We acquired all the cell lines from ATCC and cultured them at 37° C. 5% CO2 in the recommended media conditions: Colo205, LIM2405, SNUC5 and SW1417: RPMI 1640 (Amimed, #1-41F01-I) supplemented with 1% L-glutamine, 10 mM HEPES (Amimed, #5-31F00-H), 1% Na-pyruvate (Amimed, #5-60F00-H), 10% FCS. MDST8: DMEM high glucose (Amimed, #1-26F01-I) supplemented with 1% L-glutamine, 10% FCS. RKO: EMEM (Amimed, #1-31S01-1) supplemented with 1% L-glutamine, 10% FCS. […]
Seven days after treatment initiation, cell growth was determined using CellTiter-Glo® (Promega, #G7573), which measures the amount of ATP in the well. […] Cell lysis was induced for two minutes on an orbital shaker, the plates were incubated at room temperature for ten minutes, and luminescence was recorded.
To summarize the data of this study clearly, the percentage of growth inhibition versus DMSO (% GI) at single compound concentrations were reported. […] Raw data values were normalized to day 0, the time of treatment initiation, so that the % GI could be calculated. […]

As to `CNC[C@@H](NC(=O)c1ccc(-c2nc([C@H]3CC[C@H](O)[C@@H](F)C3)cnc2N)cc1F)c1cc(F)cc(Br)c1` [Compound A, 4-(3-amino-6-((1S,3 S,4S)-3-fluoro-4-hydroxycyclohexyl)pyrazin-2-yl)-N-((S)-1-(3-bromo-5-fluorophenyl)-2-(methylamino)ethyl)-2-fluorobenzamide], the “anti-tumor response, T/C” value in assay [1] was found to be 54 % T/C. As for `C[C@@H]1OCC2(CCN(c3cnc(Sc4ccnc(N)c4Cl)c(N)n3)CC2)[C@@H]1N` [Compound B, (3S,4S)-8-(6-amino-5-((2-amino-3-chloropyridin-4-yl)thio)pyrazin-2-yl)-3-methyl-2-oxa-8-azaspiro[4.5]decan-4-amine], in assay [2], the “cell growth inhibition (% GI vs DMSO)” value is listed as “no effect”. With `CC(C)(C)c1nc(-c2cccc(NS(=O)(=O)c3c(F)cccc3F)c2F)c(-c2ccnc(N)n2)s1` [Dabrafenib, N-(3-(5-(2-aminopyrimidin-4-yl)-2-(tert-butyl)thiazol-4-yl)-2-fluorophenyl)-2,6-difluorobenzenesulfonamide], in assay [1], the “anti-tumor response, T/C” value amounted to 59 % T/C. For `CC(=O)Nc1cccc(-n2c(=O)n(C3CC3)c(=O)c3c(Nc4ccc(I)cc4F)n(C)c(=O)c(C)c32)c1` [Trametinib], the “anti-tumor response, T/C” value in assay [1] is given as 48 % T/C.

The values are drawn from patent US20230090389A1 (Novartis AG, priority 2020, published 2023).
